Results as given in patent publication US6962920B2, “Pyrimidine derivatives and methods of making and using these derivatives” (Duquesne University of the Holy Ghost, priority 1992, dated 2005).
Read-outs that look alike come from different tables or passages of the source.

Columns and labels:
BT-549 = assay: NCI in vitro anti-cancer activity, Breast Cancer; format: cell-based
DU-145 = assay: NCI in vitro anti-cancer activity, Prostate Cancer; format: cell-based
MDA-N = assay: NCI in vitro anti-cancer activity, Breast Cancer; format: cell-based
SF-539 = assay: NCI in vitro anti-cancer activity, CNS Cancer; format: cell-based
T-47D = assay: NCI in vitro anti-cancer activity, Breast Cancer; format: cell-based
HOP-92 = format: cell-based
OVCAR-4 = assay: NCI in vitro anti-cancer activity, Ovarian Cancer; format: cell-based
UO-31 = assay: NCI in vitro anti-cancer activity, Renal Cancer; format: cell-based
CAKI-1 = assay: NCI in vitro anti-cancer activity, Renal Cancer; format: cell-based
SF-295 = assay: NCI in vitro anti-cancer activity, CNS Cancer; format: cell-based
SNB-19 = assay: NCI in vitro anti-cancer activity, CNS Cancer; format: cell-based
HCT-15 = assay: NCI in vitro anti-cancer activity, Colon Cancer; format: cell-based
EKVX = format: cell-based
SN12C = assay: NCI in vitro anti-cancer activity, Renal Cancer; format: cell-based
Tg DHFR = target: T1, Tg DHFR (Toxoplasma gondii, UniProt Q07422); assay: biochemical; format: biochemical
T1 sequence (Q07422 1-610): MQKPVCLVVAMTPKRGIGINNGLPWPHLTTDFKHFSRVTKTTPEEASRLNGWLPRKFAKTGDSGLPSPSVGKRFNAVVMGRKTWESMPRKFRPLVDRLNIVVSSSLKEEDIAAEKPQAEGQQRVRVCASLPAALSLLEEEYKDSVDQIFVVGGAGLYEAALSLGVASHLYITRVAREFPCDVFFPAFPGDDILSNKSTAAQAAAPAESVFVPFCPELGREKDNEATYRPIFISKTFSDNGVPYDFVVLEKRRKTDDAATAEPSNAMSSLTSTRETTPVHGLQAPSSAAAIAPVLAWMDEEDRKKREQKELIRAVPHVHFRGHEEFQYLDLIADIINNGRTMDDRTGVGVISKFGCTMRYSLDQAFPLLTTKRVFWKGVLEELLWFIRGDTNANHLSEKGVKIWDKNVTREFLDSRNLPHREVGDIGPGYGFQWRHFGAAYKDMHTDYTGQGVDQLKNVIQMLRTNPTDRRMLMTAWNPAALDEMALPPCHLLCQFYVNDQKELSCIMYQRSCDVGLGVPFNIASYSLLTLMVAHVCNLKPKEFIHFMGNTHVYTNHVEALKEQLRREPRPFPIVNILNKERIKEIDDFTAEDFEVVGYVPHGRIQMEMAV
Method: (§1) The selectivity ratio is a measure of the selectivity of a compound for Pc DHFR or Tg DHFR and is expressed as the IC50 value of the DHFR from rate liver (RL) divided by the IC50 value of either the Pc DHFR or the Tg DHFR, depending on which organism the compounds are being tested against. For example, the selectivity ratio of a compound is calculated by the following formula: [formula]

OVCAR-8 = assay: NCI in vitro anti-cancer activity, Ovarian Cancer; format: cell-based
RXF 393 = assay: NCI in vitro anti-cancer activity, Renal Cancer; format: cell-based
NCI-H23 = format: cell-based
IGROV1 = assay: NCI in vitro anti-cancer activity, Ovarian Cancer; format: cell-based
NCI-H226 = format: cell-based
HS 578T = assay: NCI in vitro anti-cancer activity, Breast Cancer; format: cell-based
UACC-62 = assay: NCI in vitro anti-cancer activity, Melanoma; format: cell-based
SR = assay: NCI in vitro anti-cancer activity, Leukemia; format: cell-based
U251 = assay: NCI in vitro anti-cancer activity, CNS Cancer; format: cell-based
ACHN = assay: NCI in vitro anti-cancer activity, Renal Cancer; format: cell-based
SW-620 = assay: NCI in vitro anti-cancer activity, Colon Cancer; format: cell-based
RL DHFR = target: T2, RL DHFR (Rattus norvegicus, UniProt Q920D2); assay: Inhibition of DHFR from rat liver; format: biochemical
T2 construct: Toxoplasmosis gondii (Tg) and rat liver (RL); from tissue; host or cells: rat liver
T2 sequence (Q920D2 1-187): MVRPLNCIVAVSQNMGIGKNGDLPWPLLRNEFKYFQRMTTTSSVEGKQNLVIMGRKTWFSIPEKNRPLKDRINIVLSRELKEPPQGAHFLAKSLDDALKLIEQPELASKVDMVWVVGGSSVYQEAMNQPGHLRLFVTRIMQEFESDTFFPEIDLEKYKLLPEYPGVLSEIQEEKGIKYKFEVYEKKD
Method: as §1

A498 = assay: NCI in vitro anti-cancer activity, renal cancer
From the text: The compounds identified below were further tested for their in vitro anti-cancer activity by the National Cancer Institute.

HL-60 (TB) = assay: NCI in vitro anti-cancer activity, Leukemia; format: cell-based; conditions: Table 29, Leukemia
NCI-H460 = format: cell-based; conditions: Table 29, Non-Small Cell Lung Cancer
[1] = Table 29, Breast Cancer, BT-549
[2] = Table 29, Prostate Cancer, DU-145
[3] = Table 29, Non-Small Cell Lung Cancer, HOP-92
[4] = Table 29, Ovarian Cancer, OVCAR-4
[5] = Table 29, Ovarian Cancer, OVCAR-8
[6] = Table 29, Renal Cancer, RXF 393
[7] = Table 29, Non-Small Cell Lung Cancer, NCI-H23
[8] = Table 29, Ovarian Cancer, IGROV1
[9] = Table 29, Non-Small Cell Lung Cancer, NCI-H226
[10] = Table 29, Non-Small Cell Lung Cancer, read-out: GI50

Nc1nc(N)c2c(CNc3ccc(C(=O)N[C@@H](CCC(=O)O)C(=O)O)cc3)c[nH]c2n1 [Compound 9]
GI50 (BT-549; Homo sapiens, BT-549, Breast Cancer): > 100 µM | GI50 (DU-145; Homo sapiens, DU-145, Prostate Cancer): 0.0109 µM | GI50 (MDA-N; Homo sapiens, Breast Cancer): < 0.01 µM | GI50 (SF-539; Homo sapiens): < 0.01 µM | GI50 (T-47D; Homo sapiens, T47D, Breast Cancer): > 100 µM | GI50 (HOP-92; Homo sapiens, HOP-92, Non-Small Cell Lung Cancer): 8.4 µM | GI50 (OVCAR-4; Homo sapiens, OVCAR-4, Ovarian Cancer): > 100 µM | GI50 (UO-31; Homo sapiens, UO-31, Renal Cancer): < 0.01 µM | GI50 (CAKI-1; Homo sapiens, CAKI-1, Renal Cancer): < 0.01 µM | GI50 (SF-295; Homo sapiens, SF-295, CNS Cancer): < 0.01 µM | GI50 (SNB-19; Homo sapiens, SNB-19, CNS Cancer): > 100 µM | GI50 (HCT-15; Homo sapiens, HCT-15, Colon Cancer): < 0.01 µM | GI50 (EKVX; Homo sapiens, Non-Small Cell Lung Cancer, read-out: GI50): 39.7 µM | GI50 (SN12C; Homo sapiens, Renal Cancer): < 0.01 µM | IC50 (Tg DHFR): 0.21 µM | GI50 (OVCAR-8; Homo sapiens, OVCAR-8, Ovarian Cancer): < 0.01 µM | GI50 (RXF 393; Homo sapiens, RXF 393, Renal Cancer): > 100 µM | GI50 (NCI-H23; Homo sapiens, NCI-H23, Non-Small Cell Lung Cancer): 0.0575 µM | GI50 (IGROV1; Homo sapiens, IGROV-1, IGROV1, Ovarian Cancer): < 0.01 µM | GI50 (NCI-H226; Homo sapiens, NCI-H226, Non-Small Cell Lung Cancer): > 100 µM | GI50 (HS 578T; Homo sapiens, Breast Cancer): > 100 µM | GI50 (UACC-62; Homo sapiens, UACC-62, Melanoma): < 0.01 µM | GI50 (SR; Homo sapiens, Leukemia): > 100 µM | GI50 (U251; Homo sapiens, U-251, U251, CNS Cancer): < 0.01 µM | GI50 (ACHN; Homo sapiens, Renal Cancer): < 0.01 µM | GI50 (SW-620; Homo sapiens, SW-620, Colon Cancer): 3.15 µM

COc1ccc(CCc2cn(Cc3ccccc3)c3nc(N)nc(C)c23)cc1 [Compound 113-118]
GI50 (BT-549; [1]): 40.9 µM | % inhibition RL DHFR (RL DHFR; @ 31 μM): 48% @ | GI50 (DU-145; [2]): > 100 µM | GI50 (MDA-N; Table 29, Breast Cancer): 78.3 µM | GI50 (SF-539; Table 29, CNS Cancer): 30.2 µM | GI50 (A498; Table 29, Renal Cancer, A498): 14.2 µM | GI50 (HOP-92; [3]): 31 µM | GI50 (OVCAR-4; [4]): 80.1 µM | GI50 (UO-31; Table 29, Renal Cancer, UO-31): > 100 µM | GI50 (CAKI-1; Table 29, Renal Cancer, CAKI-1): > 100 µM | GI50 (HL-60 (TB)): > 100 µM | GI50 (SF-295; Table 29, CNS Cancer, SF-295): 79.3 µM | GI50 (SNB-19; Table 29, CNS Cancer, SNB-19): > 100 µM | GI50 (HCT-15; Table 29, Colon Cancer, HCT-15): 51.4 µM | GI50 (SN12C; Table 29, Renal Cancer): > 100 µM | % inhibition Tg DHFR (Tg DHFR; @ 31 μM): 15% @ 31 μM | GI50 (OVCAR-8; [5]): 52.5 µM | GI50 (RXF 393; [6]): 94.7 µM | GI50 (NCI-H23; [7]): 97.3 µM | GI50 (IGROV1; [8]): 68.2 µM | GI50 (NCI-H226; [9]): > 100 µM | GI50 (HS 578T; Table 29, Breast Cancer): < 100 µM | GI50 (UACC-62; Table 29, Melanoma, UACC-62): 80 µM | GI50 (ACHN; Table 29, Renal Cancer): 34.8 µM | GI50 (SW-620; Table 29, Colon Cancer, SW-620): > 100 µM | GI50 (NCI-H460): 42.5 µM

COc1ccccc1CCc1cn(Cc2ccccc2)c2nc(N)nc(C)c12 [Compound 113-148]
GI50 (BT-549; [1]): 15.8 µM | % inhibition RL DHFR (RL DHFR; @ 85 μM): 27% @ | GI50 (DU-145; [2]): 13.1 µM | GI50 (MDA-N; Table 29, Breast Cancer): 14.7 µM | GI50 (SF-539; Table 29, CNS Cancer): 7.2 µM | GI50 (A498; Table 29, Renal Cancer, A498): 1.94 µM | GI50 (T-47D; Table 29, Breast Cancer): 3.84 µM | GI50 (HOP-92; [3]): 16.3 µM | GI50 (OVCAR-4; [4]): 8.88 µM | GI50 (UO-31; Table 29, Renal Cancer, UO-31): 4.78 µM | GI50 (CAKI-1; Table 29, Renal Cancer, CAKI-1): 11.6 µM | GI50 (HL-60 (TB)): 4.81 µM | GI50 (SF-295; Table 29, CNS Cancer, SF-295): 8.43 µM | GI50 (SNB-19; Table 29, CNS Cancer, SNB-19): 10.9 µM | GI50 (EKVX; [10]): 5.78 µM | GI50 (SN12C; Table 29, Renal Cancer): 13.3 µM | % inhibition Tg DHFR (Tg DHFR; @ 85 μM): 27% @ 85 μM | GI50 (OVCAR-8; [5]): 17.6 µM | GI50 (RXF 393; [6]): 11.1 µM | GI50 (NCI-H23; [7]): 8.47 µM | GI50 (IGROV1; [8]): 14.2 µM | GI50 (NCI-H226; [9]): 12.4 µM | GI50 (HS 578T; Table 29, Breast Cancer): 14.9 µM | GI50 (UACC-62; Table 29, Melanoma, UACC-62): 12.3 µM | GI50 (SR; Table 29, Leukemia): 3.51 µM | GI50 (U251; Table 29, CNS Cancer, U251): 10.4 µM | GI50 (ACHN; Table 29, Renal Cancer): 7.99 µM | GI50 (SW-620; Table 29, Colon Cancer, SW-620): 17.1 µM | GI50 (NCI-H460): 7.7 µM

COc1cc(CCc2c[nH]c3nc(N)nc(C)c23)cc(OC)c1OC [Compound 113-154A]
GI50 (BT-549; [1]): 19.3 µM | IC50 (RL DHFR; Table 26, read-out: Inhibitory Concentrations (IC50) RL DHFR): 2.3 µM | GI50 (DU-145; [2]): 75.6 µM | GI50 (MDA-N; Table 29, Breast Cancer): 35.3 µM | GI50 (SF-539; Table 29, CNS Cancer): 20.4 µM | GI50 (A498; A498 renal cancer cell line): selective | GI50 (A498; Table 29, Renal Cancer, A498): 0.845 µM | GI50 (T-47D; Table 29, Breast Cancer): 60.2 µM | GI50 (HOP-92; [3]): 18.2 µM | GI50 (OVCAR-4; [4]): 77.8 µM | GI50 (UO-31; Table 29, Renal Cancer, UO-31): 34 µM | GI50 (CAKI-1; Table 29, Renal Cancer, CAKI-1): 49.5 µM | GI50 (HL-60 (TB)): 41.8 µM | GI50 (SF-295; Table 29, CNS Cancer, SF-295): 36.6 µM | GI50 (SNB-19; Table 29, CNS Cancer, SNB-19): 67.4 µM | GI50 (HCT-15; Table 29, Colon Cancer, HCT-15): 24.3 µM | GI50 (EKVX; Non-Small Cell Lung Cancer): selective | GI50 (EKVX; [10]): 5.21 µM | GI50 (SN12C; Table 29, Renal Cancer): 43.1 µM | Selectivity Ratio: RL DHFR/Tg (Tg DHFR; Table 26): 0.23 | IC50 (Tg DHFR; Table 26, read-out: Inhibitory Concentrations (IC50) Tg DHFR): 10.2 µM | GI50 (OVCAR-8; [5]): 31.1 µM | GI50 (RXF 393; [6]): 32.7 µM | GI50 (NCI-H23; [7]): 26.9 µM | GI50 (IGROV1; [8]): 17.3 µM | GI50 (NCI-H226; [9]): 23 µM | GI50 (HS 578T; Table 29, Breast Cancer): 27 µM | GI50 (UACC-62; Table 29, Melanoma, UACC-62): 19.6 µM | GI50 (SR; Table 29, Leukemia): 32.5 µM | GI50 (U251; Table 29, CNS Cancer, U251): 23.4 µM | GI50 (ACHN; Table 29, Renal Cancer): 35.7 µM | GI50 (NCI-H460): 19.3 µM
